From article PMC10709440, “High-throughput ligand profile characterization in novel cell lines expressing seven heterologous insect olfactory receptors for the detection of volatile plant biomarkers” (Scientific Reports, 2023)

Legend:
Drosophila OR13a = biological target: T1, Drosophila OR13a (Drosophila melanogaster, UniProt Q9VXL0); test: cell-based; design: GCaMP6 calcium fluorescence in stable HEK293 OR+ORCO lines; peak dF normalised to 50 uM VUAA1 (=1); conditions: HEK293; relative to 50 uM VUAA1 response; below 0.05 set to 0; read-out: % activation
T1 construct: expressed in transfected cells
T1 sequence (Q9VXL0 1-418): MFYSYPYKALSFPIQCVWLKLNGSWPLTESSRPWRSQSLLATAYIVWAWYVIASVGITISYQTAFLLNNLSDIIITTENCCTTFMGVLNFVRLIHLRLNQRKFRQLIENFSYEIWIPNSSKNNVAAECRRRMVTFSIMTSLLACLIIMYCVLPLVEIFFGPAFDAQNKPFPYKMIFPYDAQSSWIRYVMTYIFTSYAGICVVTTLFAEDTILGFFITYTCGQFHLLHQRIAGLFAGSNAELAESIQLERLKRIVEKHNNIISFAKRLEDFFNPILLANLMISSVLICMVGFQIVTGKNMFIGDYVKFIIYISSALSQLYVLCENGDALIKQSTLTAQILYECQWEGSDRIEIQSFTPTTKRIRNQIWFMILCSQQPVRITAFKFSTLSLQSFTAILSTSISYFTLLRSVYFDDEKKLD
T1 sequence (Q9VNB5 1-486 partner): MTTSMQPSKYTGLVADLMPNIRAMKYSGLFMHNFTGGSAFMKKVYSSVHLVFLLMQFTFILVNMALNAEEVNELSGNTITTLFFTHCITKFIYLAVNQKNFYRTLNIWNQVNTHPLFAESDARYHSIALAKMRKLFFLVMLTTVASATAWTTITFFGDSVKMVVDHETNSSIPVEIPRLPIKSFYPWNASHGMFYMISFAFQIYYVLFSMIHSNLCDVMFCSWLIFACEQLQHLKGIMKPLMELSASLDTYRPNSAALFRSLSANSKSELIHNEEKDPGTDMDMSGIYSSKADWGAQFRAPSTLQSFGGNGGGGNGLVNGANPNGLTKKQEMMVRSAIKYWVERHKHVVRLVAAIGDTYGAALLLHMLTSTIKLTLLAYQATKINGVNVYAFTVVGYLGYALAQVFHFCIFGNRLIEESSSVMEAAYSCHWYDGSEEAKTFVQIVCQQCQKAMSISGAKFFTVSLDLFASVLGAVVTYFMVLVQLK
Experimental: (§1) Twelve thousand to 18,000 cells were plated into each well of a black wall, transparent bottom 384-well microplate (Greiner) 48 h or 72 h before the measurements and were simultaneously treated with 1 μg/mL doxycycline. Typically, three columns were filled with one OR expressing cell line, each row was treated with the same compound (three technical replicates for each OR), and each responsive VOC-OR combination was measured at least three times on different days. The plate has 24 columns, thus we could record responses in up to eight different cell lines in each plate. On the day of the experiment, the growth medium was replaced with 20 µL assay buffer/well (140 mM NaCl, 5 mM KCl, 2 mM CaCl2, 1 mM MgCl2, 5 mM HEPES-Na, 20 mM glucose, pH 7.3, 340 mOsm). […] Baseline fluorescence (F0) was recorded for 5 s, after which 7 µL VOC buffer (140 mM NaCl, 5 mM KCl, 2 mM CaCl2, 1 mM MgCl2, 5 mM HEPES-Na, 31 mM glucose, 0.1% DMSO, pH 7.3, 340 mOsm) was injected into each well in one row and the fluorescence response was recorded for an additional 30 s, at a rate of one read/sec. VOC solutions (VOC buffer with 4× concentration of the final measured VOC concentration, 9 µL/well was injected) were measured on the same wells in a second round with the same protocol. Each individual concentration of a specific VOC sample was recorded in three wells for the same cell line on the same microplate. The raw data were exported in xls file format, F0 and FMAX values, and the fluorescence intensity changes (∆F) were calculated in Excel (Microsoft) (Supplementary file Data summary.xlsx) using the following equation: ΔF=FMAX-F0/F0 (see also Fig. 1C). On each plate, we recorded the response of each cell line to 50 µM VUAA1. The average of these ∆F values of each cell line were used to calculate the VUAA1-normalized values for the rest of the plate, by dividing VOC response ∆F values by the average VUAA1 response ∆F value of the corresponding OR cell line. Each VOC-OR combination was measured three times as tec The recorded FMAX, F0, ∆F, VUAA1-normalized ∆F values, as well as the OR name, the name of the tested sample, and the final concentration for each well were copied into supplementary file Data summary.xlsx, that was used to summarize all the plates recorded. Here, the averages of the measurements were calculated for each receptor-VOC-concentration combination. […] Each VOC was measured at 1, 10, and 100 µM final concentration on each receptor. VUAA1-normalized response was calculated as described in methods. Values are averages of at least three biological replicates for responsive combinations and two for the non-responsive combinations. The chemical structures of the strong and medium ligands are shown for each cell line. Heat map: white-green colors correspond to the lowest-highest values measured for each cell line.

Drosophila OR85b = biological target: T2, Drosophila OR85b (Drosophila melanogaster, UniProt Q9VHQ7); test: cell-based; design: GCaMP6 calcium fluorescence in stable HEK293 OR+ORCO lines; peak dF normalised to 50 uM VUAA1 (=1); conditions: HEK293; relative to 50 uM VUAA1 response; below 0.05 set to 0; read-out: % activation
T2 construct: expressed in transfected cells
T2 sequence (Q9VHQ7 1-390): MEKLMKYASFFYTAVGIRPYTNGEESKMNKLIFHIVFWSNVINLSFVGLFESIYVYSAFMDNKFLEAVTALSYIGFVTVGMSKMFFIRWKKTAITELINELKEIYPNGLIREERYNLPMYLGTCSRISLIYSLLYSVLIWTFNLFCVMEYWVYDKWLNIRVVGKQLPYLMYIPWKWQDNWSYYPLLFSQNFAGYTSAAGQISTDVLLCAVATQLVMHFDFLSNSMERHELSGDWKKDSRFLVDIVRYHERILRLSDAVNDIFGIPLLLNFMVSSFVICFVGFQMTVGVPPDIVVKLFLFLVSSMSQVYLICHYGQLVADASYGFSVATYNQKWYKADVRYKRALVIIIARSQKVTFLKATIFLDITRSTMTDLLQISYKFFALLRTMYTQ
T2 sequence (Q9VNB5 1-486 partner): T1 sequence (Q9VNB5 1-486 partner)
Experimental: as §1

Compound `CC/C=C/CCO` [e3-hexenol] has an activity at 1 µM (Drosophila OR13a) of 0%, an activity at 10 µM (Drosophila OR13a) of 0% and an activity at 100 µM (Drosophila OR13a) of 7.11%. The activity at 1 µM (Drosophila OR85b) was 0%, the activity at 10 µM (Drosophila OR85b) was 0% and the activity at 100 µM (Drosophila OR85b) was 0%.
